Tests used:
[1] = biological target: T1, human cloned CHRM5 receptor (Homo sapiens, UniProt P08912); test: CHRM5 Ca++ Flux Assay (M5_CHO cells, agonist mode); format: cell-based; details: for Emax: Percent Activity (PA) measured to EC100 of Carbachol, read-out: M5 FDSS PA %; for EC50: agonist mode, geometric mean if tested more than once, read-out: M5 FDSS EC50
T1 construct: expressed in transfected cells; host or cells: CHO (M5_CHO)
T1 sequence (P08912 1-532): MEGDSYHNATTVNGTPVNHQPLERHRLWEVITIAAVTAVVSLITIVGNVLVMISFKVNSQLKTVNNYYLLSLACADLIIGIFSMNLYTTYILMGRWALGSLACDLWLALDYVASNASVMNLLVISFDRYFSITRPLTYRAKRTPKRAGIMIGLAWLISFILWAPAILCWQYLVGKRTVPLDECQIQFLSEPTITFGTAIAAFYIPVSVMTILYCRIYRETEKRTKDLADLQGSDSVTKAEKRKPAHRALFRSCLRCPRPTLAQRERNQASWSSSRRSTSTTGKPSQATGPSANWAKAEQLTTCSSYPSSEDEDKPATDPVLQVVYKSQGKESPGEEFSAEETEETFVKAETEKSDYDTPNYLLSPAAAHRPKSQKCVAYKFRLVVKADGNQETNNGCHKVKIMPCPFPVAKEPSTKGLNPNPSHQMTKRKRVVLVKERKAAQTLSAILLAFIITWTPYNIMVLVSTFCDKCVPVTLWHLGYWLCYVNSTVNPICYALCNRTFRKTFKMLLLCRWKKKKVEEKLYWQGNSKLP
Method in brief: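 Agonist-mode calcium mobilisation: compounds, 11 concentrations in triplicate, applied to stable M3_CHO or M5_CHO cells loaded with Ca++ dye, fluorescence followed 3 min. Efficacy expressed against carbachol EC100; EC curves by four-parameter nonlinear regression, geometric mean across independent runs.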

[2] = biological target: T2, Cloned human M1 receptor (CHRM1) (Homo sapiens, UniProt P11229); test: CHRM1 Ca++ Flux Assay (HEK293 M1 cells, agonist mode); format: cell-based; details: for Emax: Percent Activity (PA), read-out: M1 FDSS PA %; for EC50: geometric mean if tested more than once, read-out: M1 FDSS EC50
T2 construct: expressed in transfected cells; host or cells: HEK293
T2 sequence (P11229 1-460): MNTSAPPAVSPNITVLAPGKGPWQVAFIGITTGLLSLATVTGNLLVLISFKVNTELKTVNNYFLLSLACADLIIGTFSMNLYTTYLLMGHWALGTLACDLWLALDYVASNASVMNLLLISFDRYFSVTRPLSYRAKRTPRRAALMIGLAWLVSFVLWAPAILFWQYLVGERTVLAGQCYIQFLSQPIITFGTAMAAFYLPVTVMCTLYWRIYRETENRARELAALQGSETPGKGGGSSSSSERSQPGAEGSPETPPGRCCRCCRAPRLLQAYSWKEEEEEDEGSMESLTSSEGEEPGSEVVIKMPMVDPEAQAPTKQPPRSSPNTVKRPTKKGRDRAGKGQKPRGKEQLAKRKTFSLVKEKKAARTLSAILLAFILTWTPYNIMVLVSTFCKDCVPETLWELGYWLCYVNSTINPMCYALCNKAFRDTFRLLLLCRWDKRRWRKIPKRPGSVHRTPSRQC
Method in brief: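 In agonist mode, compound-induced intracellular Ca++ mobilization was recorded for 3 min by fluorescent imager. The cells were HEK293 stably expressing cloned human CHRM1, in Ca/Mg-free HBSS with 20 mM HEPES. Triplicate 11-point dose-responses were fitted by four-parameter regression and normalized to the carbachol EC100 response.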

SMILES	Emax [1] [%]	EC50 [1] [nM]	Emax [2] [%]	EC50 [2] [nM]
Fc1ccc(OC2COC2)c(C2CCN([C@@H]3COC4(C3)CN(c3nnco3)C4)CC2)c1 [Example 1A, (S)-7-(4-(5-fluoro-2-(oxetan-3-yloxy)phenyl)piperidin-1-yl)-2-(1,3,4-oxadiazol-2-yl)-5-oxa-2-azaspiro[3.4]octane]	0	> 25000	92	210
Fc1ccc(OC[C@H]2CCOC2)c(C2CCN([C@@H]3COC4(C3)CN(c3nnco3)C4)CC2)c1 [Example 1I, (S)-7-(4-(5-fluoro-2-(((S)-tetrahydrofuran-3-yl)methoxy)phenyl)piperidin-1-yl)-2-(1,3,4-oxadiazol-2-yl)-5-oxa-2-azaspiro[3.4]octane]	0	> 25000	54	980
Fc1ccc(OCC2CCOCC2)c(C2CCN([C@@H]3COC4(C3)CN(c3nnco3)C4)CC2)c1 [Example 1J, (S)-7-(4-(5-fluoro-2-((tetrahydro-2H-pyran-4-yl)methoxy)phenyl)piperidin-1-yl)-2-(1,3,4-oxadiazol-2-yl)-5-oxa-2-azaspiro[3.4]octane]	0	> 25000	73	4090
COC(C)(C)CCOc1ccc(F)cc1C1CCN([C@@H]2COC3(C2)CN(c2nnco2)C3)CC1 [Example 1K, (S)-7-(4-(5-fluoro-2-(3-methoxy-3-methylbutoxy)phenyl)piperidin-1-yl)-2-(1,3,4-oxadiazol-2-yl)-5-oxa-2-azaspiro[3.4]octane]	0	> 25000	58	1590
COCCOc1ccc(F)cc1C1CCN([C@@H]2COC3(C2)CN(c2nnco2)C3)CC1 [Example 1L, (S)-7-(4-(5-fluoro-2-(2-methoxyethoxy)phenyl)piperidin-1-yl)-2-(1,3,4-oxadiazol-2-yl)-5-oxa-2-azaspiro[3.4]octane]	0	> 25000	75	1320
Fc1ccc(OC2COCOC2)c(C2CCN([C@@H]3COC4(C3)CN(c3nnco3)C4)CC2)c1 [Example 1M, (S)-7-(4-(2-((1,3-dioxan-5-yl)oxy)-5-fluorophenyl)piperidin-1-yl)-2-(1,3,4-oxadiazol-2-yl)-5-oxa-2-azaspiro[3.4]octane]	0	> 25000	89	1370
CC(C)(O)CCOc1ccc(F)cc1C1CCN([C@@H]2COC3(C2)CN(c2nnco2)C3)CC1 [Example 1N, (S)-4-(2-(1-(2-(1,3,4-oxadiazol-2-yl)-5-oxa-2-azaspiro[3.4]octan-7-yl)piperidin-4-yl)-4-fluorophenoxy)-2-methylbutan-2-ol]	0	> 25000	82	376
c1ccc(C2CCN([C@@H]3COC4(C3)CN(c3nnco3)C4)CC2)c(O[C@@H]2CCOC2)c1 [Example 1O, (S)-2-(1,3,4-oxadiazol-2-yl)-7-(4-(2-(((R)-tetrahydrofuran-3-yl)oxy)phenyl)piperidin-1-yl)-5-oxa-2-azaspiro[3.4]octane]	0	> 25000	69	1350
c1ccc(C2CCN([C@@H]3COC4(C3)CN(c3nnco3)C4)CC2)c(OC2COC2)c1 [Example 1P, (S)-2-(1,3,4-oxadiazol-2-yl)-7-(4-(2-(oxetan-3-yloxy)phenyl)piperidin-1-yl)-5-oxa-2-azaspiro[3.4]octane]	0	> 25000	76	439
COc1ccccc1C1CCN([C@@H]2COC3(C2)CN(c2nnco2)C3)CC1 [Example 1Q, (S)-7-(4-(2-methoxyphenyl)piperidin-1-yl)-2-(1,3,4-oxadiazol-2-yl)-5-oxa-2-azaspiro[3.4]octane]	0	> 25000	81	678
Fc1cc(O[C@@H]2CCOC2)c(C2CCN([C@@H]3COC4(C3)CN(c3nnco3)C4)CC2)cc1F [Example 1R, (S)-7-(4-(4,5-difluoro-2-(((R)-tetrahydrofuran-3-yl)oxy)phenyl)piperidin-1-yl)-2-(1,3,4-oxadiazol-2-yl)-5-oxa-2-azaspiro[3.4]octane]	0	> 25000	76	670
COc1cc(F)ccc1C1CCN([C@@H]2COC3(C2)CN(c2nnco2)C3)CC1 [Example 1S, (S)-7-(4-(4-fluoro-2-methoxyphenyl)piperidin-1-yl)-2-(1,3,4-oxadiazol-2-yl)-5-oxa-2-azaspiro[3.4]octane]	0	> 25000	71	634
CC(C)(O)CCOc1cc(F)ccc1C1CCN([C@@H]2COC3(C2)CN(c2nnco2)C3)CC1 [Example 1T, (S)-4-(2-(1-(2-(1,3,4-oxadiazol-2-yl)-5-oxa-2-azaspiro[3.4]octan-7-yl)piperidin-4-yl)-5-fluorophenoxy)-2-methylbutan-2-ol]	0	> 25000	74	640
CC(C)(O)COc1ccc(F)cc1C1CCN([C@@H]2COC3(C2)CN(c2nnco2)C3)CC1 [Example 1U, (S)-1-(2-(1-(2-(1,3,4-oxadiazol-2-yl)-5-oxa-2-azaspiro[3.4]octan-7-yl)piperidin-4-yl)-4-fluorophenoxy)-2-methylpropan-2-ol]	0	> 25000	75	961
COc1ccc(F)cc1C1CCN([C@@H]2COC3(C2)CN(c2nnco2)C3)CC1 [Example 1V, (S)-7-(4-(5-fluoro-2-methoxyphenyl)piperidin-1-yl)-2-(1,3,4-oxadiazol-2-yl)-5-oxa-2-azaspiro[3.4]octane]	0	> 25000	76	663
c1ccc(C2CCN([C@@H]3COC4(C3)CN(c3nnco3)C4)CC2)c(-c2cncnc2)c1 [Example 1W, (S)-2-(1,3,4-oxadiazol-2-yl)-7-(4-(2-(pyrimidin-5-yl)phenyl)piperidin-1-yl)-5-oxa-2-azaspiro[3.4]octane]	20	13800	94	335
c1ccc(C2CCN([C@@H]3COC4(C3)CN(c3nnco3)C4)CC2)c(-c2ncco2)c1 [Example 1X, (S)-2-(1,3,4-oxadiazol-2-yl)-7-(4-(2-(oxazol-2-yl)phenyl)piperidin-1-yl)-5-oxa-2-azaspiro[3.4]octane]	0	> 25000	99	1230
Cc1nnc(-c2ccccc2C2CCN([C@@H]3COC4(C3)CN(c3nnco3)C4)CC2)o1 [Example 1Y, (S)-7-(4-(2-(5-methyl-1,3,4-oxadiazol-2-yl)phenyl)piperidin-1-yl)-2-(1,3,4-oxadiazol-2-yl)-5-oxa-2-azaspiro[3.4]octane]	0	> 25000	107	579
Fc1ccc(OCC2COC2)c(C2CCN([C@@H]3COC4(C3)CN(c3nncs3)C4)CC2)c1 [Example 2A, (S)-7-(4-(5-fluoro-2-(oxetan-3-ylmethoxy)phenyl)piperidin-1-yl)-2-(1,3,4-thiadiazol-2-yl)-5-oxa-2-azaspiro[3.4]octane]	0	> 25000	103	553

Source: patent publication US11485742B2, “2-azaspiro[3.4]octane derivatives as M4 agonists” (NOVARTIS AG, priority 2019, dated 2022)
